Data on five compounds can be found in PMC6009938, “The use of dimethylsulfoxide as a solvent in enzyme inhibition studies: the case of aldose reductase” (Journal of Enzyme Inhibition and Medicinal Chemistry, 2017).

Assay type in all cases: biochemical
The target in test [1] is T1, human recombinant AR (hAR) (Homo sapiens, UniProt P15121).
T1 construct: made in house
The experiment in a line: Aldose reductase assay, L-idose reduction (NADPH oxidation at 340 nm). Particulars: for Inhibition model / Ki / Ki′: substrate L-idose. How it is done:
(§1) One unit of enzyme activity is the amount that catalyses the conversion of 1 µmol of substrate/min in the above assay conditions. These assay conditions were also adopted to assess the effectiveness of inhibitors when L-idose, trans-4-hydroxy-2,3-nonenal (HNE), or 3-glutathionyl-4-hydroxynonenal (GSHNE) was used as a substrate instead of GAL.
(§2) The human recombinant AR (hAR) was expressed and purified as previously described. […] The purified enzyme was stored at −80 °C in a 10 mM sodium phosphate buffer pH 7.0 containing 2 mM DTT and 30% (w/v) glycerol. Before use, the enzyme was extensively dialysed against a 10 mM sodium phosphate buffer pH 7.0.

Test [2] deals with T1, human recombinant AR (hAR). Kind of test: Aldose reductase assay, HNE reduction (NADPH oxidation at 340 nm). Particulars: for Inhibition model / Ki′: substrate HNE. The procedure: (§3) The AR activity was determined at 37 °C as previously described, following the decrease in absorbance at 340 nm due to NADPH oxidation (ε 340 = 6.22 mM^−1·cm^−1) through a Biochrom Libra S60 spectrophotometer (Biochrom, Cambridge, United Kingdom). The standard assay mixture contained a 0.25 M sodium phosphate buffer pH 6.8, 0.18 mM NADPH, 0.4 M ammonium sulphate, 0.5 mM EDTA and 4.7 mM GAL. One unit of enzyme activity is the amount that catalyses the conversion of 1 µmol of substrate/min in the above assay conditions. These assay conditions were also adopted to assess the effectiveness of inhibitors when L-idose, trans-4-hydroxy-2,3-nonenal (HNE), or 3-glutathionyl-4-hydroxynonenal (GSHNE) was used as a substrate instead of GAL.
as §2
The protein concentration was determined according to Bradford[35], using BSA as a standard protein. HNE was prepared as previously described. GSHNE was prepared as previously described[37] by incubation of GSH and HNE, monitoring the time course of GSH consumption. The residual GSH was determined as previously described.

Test [3] addresses T1, human recombinant AR (hAR). The experiment in a line: Aldose reductase assay, GSHNE reduction. The conditions noted are these: up to 100 mM in the assay mixture; different substrate concentrations. How it is done: as §3
The human recombinant AR (hAR) was expressed and purified as previously described. […] The specific activity of purified hAR was 5.3 U/mg. The purified enzyme was stored at −80 °C in a 10 mM sodium phosphate buffer pH 7.0 containing 2 mM DTT and 30% (w/v) glycerol. Before use, the enzyme was extensively dialysed against a 10 mM sodium phosphate buffer pH 7.0.
The protein concentration was determined according to Bradford[35], using BSA as a standard protein. HNE was prepared as previously described. […] The residual GSH was determined as previously described.

The target in test [4] is T1, human recombinant AR (hAR). Kind of test: Aldose reductase assay, GAL reduction. The procedure:
as §1, §2

Where [5] appears, read: DMSO 40 mM, apparent, ESI complex.
The mark [6] stands for this setting: DMSO 100 mM, apparent, ESI complex.
[7] abbreviates: DMSO 200 mM, apparent, ESI complex.
Setting [8] is: No DMSO, dissociation constant of ESI complex.

On to `C[S+](C)[O-]` [DMSO, dimethyl sulfoxide], for which the figures for the Inhibition model entry in test [1] and in test [2] were “competitive inhibition” and “mixed type of inhibition”, respectively. Also, the “effect on enzyme activity with GSHNE as substrate” value in test [3] is listed as “no effect of interference on the enzyme activity”. Also, the “effect on the reduction of GAL catalysed by AR” value in test [4] was “no effect”.

As to `C[C@@H]1O[C@@H](OC[C@H]2O[C@@H](Oc3c(-c4ccc(O)c(O)c4)oc4cc(O)cc(O)c4c3=O)[C@H](O)[C@@H](O)[C@@H]2O)[C@H](O)[C@H](O)[C@H]1O` [Rutin, rutin], the Inhibition model entry in test [1] is “Mixed”; in test [1] (listed as rutin) it was “mixed inhibitors”; in test [2], “Uncompetitive”; in test [2] (listed as rutin) it was “uncompetitive inhibitors”. Also, the Ki in test [1] (DMSO 40 mM, apparent) worked out at 20.3 ± 1.1 µM; in test [1] (DMSO 100 mM, apparent), 24.8 ± 3.8 µM; in test [1] (DMSO 200 mM, apparent) it was 45.6 ± 5.5 µM; in test [1] (No DMSO), 17.8 ± 3 µM. Moreover, the “Ki′” value was 7.6 ± 1.2 µM in test [1] (setting [5]); 11.7 ± 0.5 µM in test [1] (setting [6]); 12.7 ± 2.0 µM in test [1] (setting [7]); 9.3 ± 1.1 µM in test [1] (setting [8]); 10.5 ± 2.0 µM in test [2] (setting [5]); 12.8 ± 1.9 µM in test [2] (setting [6]). Also, the “Ki′” value in test [2] (setting [7]) is recorded as 16.5 ± 1.9 µM; in test [2] (setting [8]), 9.2 ± 0.9 µM.

With `O=C(CCc1ccc(O)cc1)c1c(O)cc(O)cc1O` [Phloretin, phloretin], the Inhibition model entry in test [1] and in test [2] was “Mixed” each time. The “Ki′” value is listed as 62.9 ± 2.3 µM in test [1] (setting [5]); 50.3 ± 4.8 µM in test [1] (setting [6]); 60.9 ± 2.1 µM in test [1] (setting [7]); 52.5 ± 3.8 µM in test [1] (setting [8]); 64.7 ± 1.4 µM in test [2] (setting [5]); 73.4 ± 7.5 µM in test [2] (setting [6]). The figures for the “Ki′” value in test [2] (setting [7]) and in test [2] (setting [8]) were 99.5 ± 7.3 µM and 56.5 ± 4.5 µM, respectively.

For `CO` [methanol], the “inhibition of AR activity” value in test [1] (0.7% (v/v) (approximately 0.17 M), L-idose 0.4–4 mM) is reported as “less than 5%”; in test [2] (0.7% (v/v) (approximately 0.17 M), HNE 40–110 µM), “less than 5%”.

In the case of `COc1ccc(CCC(=O)c2c(O)cc(O[C@@H]3O[C@H](CO)[C@@H](O)[C@H](O)[C@H]3O[C@@H]3O[C@@H](C)[C@H](O)[C@@H](O)[C@H]3O)cc2O)cc1O` [NHDC, neohesperidin dihydrochalcone], the Inhibition model entry is on record as “mixed inhibitors” in test [1] and “uncompetitive inhibitors” in test [2]. Moreover, the Ki in test [1] (DMSO 40 mM, apparent) was determined as 114 ± 15 µM; in test [1] (DMSO 100 mM, apparent) it was 125 ± 16 µM; in test [1] (DMSO 200 mM, apparent) it was 194 ± 17 µM; in test [1] (No DMSO), 93 ± 17 µM. Also, the “Ki′” value in test [1] (setting [5]) was 286 ± 53 µM; in test [1] (setting [6]) it was 230 ± 35 µM; in test [1] (setting [7]), 283 ± 2 µM; in test [1] (setting [8]), 292 ± 17 µM; in test [2] (setting [5]) it was 134 ± 11 µM; in test [2] (setting [6]) it was 150 ± 22 µM. Besides, the “Ki′” value in test [2] (setting [7]) is 199 ± 6 µM; in test [2] (setting [8]), 122 ± 19 µM.
